Data reported in paper PMC12508057, “Discovery of ETI41 and ETI60: novel selective endosomal Toll-like receptor inhibitors for the treatment of autoimmune diseases” (Experimental & Molecular Medicine, 2025).
Like-named read-outs stand apart in the source and are kept apart here.

Tests used:
Type in all cases: cell-based
TLR4 = target: T1, TLR4 (Homo sapiens, UniProt O00206); assay: Surface TLR specificity, TNF-α secretion in differentiated THP-1; conditions: 2 and 5 μM, differentiated THP-1, LPS
T1 construct: in differentiated human THP-1 cells; endogenous in cells; host or cells: differentiated THP-1
Protocol: (§1) RAW 264.7 and differentiated THP-1 cells were seeded into 96-well plates at 2 × 10^4 cells per well, while Daudi cells were seeded at 5 × 10^4 cells per well. After stabilization for 30 min, cells were stimulated with specific TLR agonists for 4 or 24 h. Supernatants were diluted and transferred to precoated ELISA plates to measure TNF-α secretion using kits from Invitrogen. Optical absorbance was measured using a BioTek Synergy HTX multimode microplate reader, and data were interpolated using BioTek Gen5 software.
(§2) The cells were activated with agonistic ligands: […], TLR3 (poly I:C, 2 μg/ml, 24 h), TLR4 (LPS, 10 or 100 ng/ml, 4 h), TLR5 (FLA-ST, 500 ng/ml, 4 h), TLR7 (ORN06/LyoVec, 2 μg/ml, 24 h; and IMQ, 1 μg/ml, 4 h), TLR8 (TL8-506, 2 μg/ml, 24 h) and TLR9 (ODN2395, 1 μM, 4 h) at various concentrations in RAW 264.7 cells, human Daudi cells and THP-1 cells. Data are from at least three independent experiments (n = 3) and statistical differences between the induced case and other cases were analyzed and verified using a one-tailed Student’s t-test (*P < 0.05, **P < 0.01, ***P < 0.001).
(§3) Given the structural similarities among TLR family proteins, achieving high selectivity is challenging. We tested the effects of ETI41 and ETI60 on various surface TLRs to determine their specificity. […] TLRs activate transcription factors, including NF-κB, MAPKs, c-Jun N-terminal kinase (JNK), extracellular signal-regulated kinase (ERK) and IRF7, which regulate cellular functions such as proliferation and apoptosis. Western blot analysis confirmed that ETI41 and ETI60 inhibited IMQ- or ODN2395-induced phosphorylation of MAPKs (p-ERK, p-JNK and p-p38), nuclear translocation of the NF-κB p65 subunit, Iκ-Bα degradation and IRF7 expression in RAW 264.7 cells (Fig. 2a–c and Supplementary Figs. 2 and 3).

TLR5 = target: T2, TLR5 (Homo sapiens, UniProt O60602); assay: as above; conditions: 2 and 5 μM, differentiated THP-1, FLA-ST
T2 construct: in differentiated human THP-1 cells; endogenous in cells; host or cells: differentiated THP-1
Protocol: as §1, §2, §3

hTLR9 = target: T3, hTLR9 (Homo sapiens, UniProt Q9NR96); assay: TLR9 inhibition, ODN2395-induced hTNFα in Daudi
T3 construct: human B lymphoblasts (Daudi cells); endogenous in cells; host or cells: Daudi
Protocol: as §1
One-tailed paired Student’s t-tests were performed using Microsoft Excel (Microsoft). Semi-logarithmic conversions and nonregression curve analyses for calculating 50% lethal concentration (LC50) and 50% inhibitory concentration (IC50) values were conducted using GraphPad Prism 7.0 (GraphPad). The therapeutic index was calculated as […]. Animal experimental results are expressed as mean ± standard deviation and analyzed using SPSS v.20 (IBM SPSS Statistics). Homogeneity of variance was assessed using Levene’s test. […]

TLR7 = target: T4, TLR7 (Mus musculus, UniProt P58681); assay: TLR7 inhibition, TNF-α secretion (ELISA) in RAW 264.7; conditions: for TLR7 TI value: therapeutic index, RAW 264.7
T4 construct: endogenous in cells; host or cells: RAW 264.7
T4 sequence (P58681 27-1050): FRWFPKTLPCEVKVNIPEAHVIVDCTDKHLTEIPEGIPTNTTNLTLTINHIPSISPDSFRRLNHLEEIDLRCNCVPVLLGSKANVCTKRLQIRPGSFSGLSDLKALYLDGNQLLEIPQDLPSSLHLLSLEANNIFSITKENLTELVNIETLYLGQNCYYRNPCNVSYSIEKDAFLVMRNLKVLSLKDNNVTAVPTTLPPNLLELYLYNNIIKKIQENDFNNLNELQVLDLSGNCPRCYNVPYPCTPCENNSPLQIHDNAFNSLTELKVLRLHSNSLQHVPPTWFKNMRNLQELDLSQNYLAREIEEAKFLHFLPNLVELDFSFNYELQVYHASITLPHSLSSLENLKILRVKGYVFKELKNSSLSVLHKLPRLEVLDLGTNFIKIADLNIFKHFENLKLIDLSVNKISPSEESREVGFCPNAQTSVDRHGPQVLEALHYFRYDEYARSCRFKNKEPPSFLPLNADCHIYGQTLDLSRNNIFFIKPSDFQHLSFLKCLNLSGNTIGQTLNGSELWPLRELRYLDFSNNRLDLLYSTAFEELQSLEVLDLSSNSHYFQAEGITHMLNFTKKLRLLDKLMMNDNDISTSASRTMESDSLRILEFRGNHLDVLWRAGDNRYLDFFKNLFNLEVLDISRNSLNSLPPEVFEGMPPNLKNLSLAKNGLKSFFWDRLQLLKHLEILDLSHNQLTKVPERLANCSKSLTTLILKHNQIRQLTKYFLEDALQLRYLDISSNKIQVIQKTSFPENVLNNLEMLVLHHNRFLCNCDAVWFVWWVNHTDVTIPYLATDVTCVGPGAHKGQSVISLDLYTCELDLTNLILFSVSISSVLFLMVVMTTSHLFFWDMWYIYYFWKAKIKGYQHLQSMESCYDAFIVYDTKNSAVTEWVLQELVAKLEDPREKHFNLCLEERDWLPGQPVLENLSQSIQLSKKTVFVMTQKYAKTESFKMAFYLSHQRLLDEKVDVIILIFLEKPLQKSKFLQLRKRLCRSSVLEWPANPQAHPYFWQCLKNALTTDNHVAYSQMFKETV
Protocol: as §1
One-tailed paired Student’s t-tests were performed using Microsoft Excel (Microsoft). Semi-logarithmic conversions and nonregression curve analyses for calculating 50% lethal concentration (LC50) and 50% inhibitory concentration (IC50) values were conducted using GraphPad Prism 7.0 (GraphPad). The therapeutic index was calculated as […]. Animal experimental results are expressed as mean ± standard deviation and analyzed using SPSS v.20 (IBM SPSS Statistics). Homogeneity of variance was assessed using Levene’s test.
as §2

T2 sequence (O60602 21-858): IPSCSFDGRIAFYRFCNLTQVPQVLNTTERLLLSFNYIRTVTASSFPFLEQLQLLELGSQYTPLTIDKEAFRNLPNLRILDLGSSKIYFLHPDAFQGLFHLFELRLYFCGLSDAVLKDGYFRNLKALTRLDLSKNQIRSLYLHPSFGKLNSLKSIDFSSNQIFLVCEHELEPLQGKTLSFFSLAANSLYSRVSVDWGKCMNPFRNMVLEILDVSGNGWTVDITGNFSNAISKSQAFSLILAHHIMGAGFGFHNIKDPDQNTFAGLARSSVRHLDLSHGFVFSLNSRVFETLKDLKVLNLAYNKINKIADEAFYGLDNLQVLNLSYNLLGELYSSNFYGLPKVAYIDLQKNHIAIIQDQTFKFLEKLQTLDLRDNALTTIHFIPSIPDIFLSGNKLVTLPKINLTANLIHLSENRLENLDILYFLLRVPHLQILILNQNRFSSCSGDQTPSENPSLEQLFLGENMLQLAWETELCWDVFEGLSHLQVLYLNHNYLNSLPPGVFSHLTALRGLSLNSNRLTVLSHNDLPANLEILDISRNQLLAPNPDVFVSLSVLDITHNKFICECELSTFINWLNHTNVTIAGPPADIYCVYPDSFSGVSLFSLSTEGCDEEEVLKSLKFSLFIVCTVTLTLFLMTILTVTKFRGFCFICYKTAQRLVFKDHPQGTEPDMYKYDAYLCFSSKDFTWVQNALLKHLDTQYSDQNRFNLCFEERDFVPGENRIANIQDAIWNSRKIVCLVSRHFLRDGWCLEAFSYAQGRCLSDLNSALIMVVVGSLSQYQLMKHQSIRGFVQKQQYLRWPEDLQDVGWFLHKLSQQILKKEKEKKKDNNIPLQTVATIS
T3 sequence (Q9NR96 26-1032): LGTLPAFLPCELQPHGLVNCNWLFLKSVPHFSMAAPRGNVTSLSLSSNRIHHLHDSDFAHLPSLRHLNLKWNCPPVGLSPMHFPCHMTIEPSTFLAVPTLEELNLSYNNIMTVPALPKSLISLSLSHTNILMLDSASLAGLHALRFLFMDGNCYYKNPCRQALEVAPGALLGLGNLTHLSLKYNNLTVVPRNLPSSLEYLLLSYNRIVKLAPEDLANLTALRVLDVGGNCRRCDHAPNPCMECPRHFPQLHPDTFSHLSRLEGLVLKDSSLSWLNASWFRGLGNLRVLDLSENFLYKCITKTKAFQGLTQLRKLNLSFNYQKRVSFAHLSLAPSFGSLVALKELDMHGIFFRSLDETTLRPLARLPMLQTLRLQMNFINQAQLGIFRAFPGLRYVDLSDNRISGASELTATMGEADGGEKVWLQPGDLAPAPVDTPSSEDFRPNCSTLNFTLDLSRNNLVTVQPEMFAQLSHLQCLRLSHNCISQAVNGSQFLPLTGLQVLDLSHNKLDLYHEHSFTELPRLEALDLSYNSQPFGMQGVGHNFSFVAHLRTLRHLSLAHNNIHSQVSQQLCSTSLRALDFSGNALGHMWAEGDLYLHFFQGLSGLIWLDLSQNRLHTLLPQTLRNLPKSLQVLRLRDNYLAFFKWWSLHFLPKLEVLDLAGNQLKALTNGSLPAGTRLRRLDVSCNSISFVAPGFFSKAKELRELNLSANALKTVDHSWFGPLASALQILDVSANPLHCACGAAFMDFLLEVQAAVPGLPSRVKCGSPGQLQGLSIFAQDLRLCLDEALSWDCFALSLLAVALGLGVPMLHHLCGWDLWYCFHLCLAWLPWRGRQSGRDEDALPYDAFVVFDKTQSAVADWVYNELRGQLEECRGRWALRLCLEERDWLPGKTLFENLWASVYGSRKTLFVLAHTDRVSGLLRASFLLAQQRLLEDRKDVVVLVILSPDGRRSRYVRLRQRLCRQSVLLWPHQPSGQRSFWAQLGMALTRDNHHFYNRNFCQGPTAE
T1 sequence (O00206 24-839): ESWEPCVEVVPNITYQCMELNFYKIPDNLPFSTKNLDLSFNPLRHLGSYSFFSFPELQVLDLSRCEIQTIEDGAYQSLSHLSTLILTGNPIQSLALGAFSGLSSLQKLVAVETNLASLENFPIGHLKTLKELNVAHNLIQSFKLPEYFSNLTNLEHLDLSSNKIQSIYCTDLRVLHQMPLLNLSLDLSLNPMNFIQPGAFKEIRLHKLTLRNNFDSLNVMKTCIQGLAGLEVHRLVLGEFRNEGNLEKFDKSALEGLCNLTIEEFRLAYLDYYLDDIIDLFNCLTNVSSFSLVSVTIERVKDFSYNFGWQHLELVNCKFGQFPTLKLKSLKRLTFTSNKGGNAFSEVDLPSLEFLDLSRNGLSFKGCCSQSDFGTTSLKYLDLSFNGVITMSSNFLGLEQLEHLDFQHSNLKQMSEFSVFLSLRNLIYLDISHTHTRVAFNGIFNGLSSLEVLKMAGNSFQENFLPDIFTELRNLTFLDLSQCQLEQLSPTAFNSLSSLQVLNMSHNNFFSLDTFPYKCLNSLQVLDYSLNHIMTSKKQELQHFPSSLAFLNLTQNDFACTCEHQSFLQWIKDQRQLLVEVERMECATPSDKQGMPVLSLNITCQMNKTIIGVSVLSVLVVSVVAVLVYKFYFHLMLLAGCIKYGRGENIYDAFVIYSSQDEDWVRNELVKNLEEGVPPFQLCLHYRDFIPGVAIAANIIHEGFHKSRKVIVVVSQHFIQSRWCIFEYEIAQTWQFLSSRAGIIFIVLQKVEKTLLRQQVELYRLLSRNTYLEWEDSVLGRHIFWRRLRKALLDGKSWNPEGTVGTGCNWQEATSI
T1 sequence (Q9Y6Y9 19-160 partner): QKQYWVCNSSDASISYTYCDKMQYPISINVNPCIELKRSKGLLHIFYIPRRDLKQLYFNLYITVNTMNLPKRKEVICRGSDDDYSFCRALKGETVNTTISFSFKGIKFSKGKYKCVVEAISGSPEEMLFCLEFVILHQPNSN

SMILES	Inhibition of TLR4 (TNF-α secretion) (TLR4)	Inhibition of TLR5 (TNF-α secretion) (TLR5)	IC50 (hTLR9) [nM]	IC50 (TLR7) [nM]	TLR7 TI value (TLR7)	IC50 (TLR7; RAW 264.7 cell line, read-out: TLR7 IC50 (mTNFα)) [nM]
Cc1cc2c(N)c3c(nc2n1CCCN(C)C)CCCCCC3 [ETI41]	neither compound inhibited	neither compound inhibited	80.1	630	106.63	
COc1ccc2c3c(N)c4c(nc3n(CCCN(C)C)c2c1)CCCC4 [ETI60]	neither compound inhibited	neither compound inhibited	20.9		75.65	680
